Test results published in patent publication US9353082B2, “Pharmaceutical compounds” (BIAL—PORTELA & CA, S.A., priority 2008, dated 2016).

How the values were obtained:
FAAH [1] = target: T1, FAAH (Rattus norvegicus, UniProt P97612); assay: In vitro FAAH activity in rat brain membranes, 3H-AEA substrate, % of control; type: biochemical, Wistar rats; details: low value = strong inhibitor; for In Vitro FAAH activity, 100 nM: 100 nM test compound; for In Vitro 100 nM (FAAH activity, % of control): rat brain membranes, compound at 100 nM
T1 construct: Frozen brains (without cerebellum) from Wistar rats were used; from tissue; host or cells: Wistar rat brain (without cerebellum), washed membrane pellets
T1 sequence (P97612 1-579): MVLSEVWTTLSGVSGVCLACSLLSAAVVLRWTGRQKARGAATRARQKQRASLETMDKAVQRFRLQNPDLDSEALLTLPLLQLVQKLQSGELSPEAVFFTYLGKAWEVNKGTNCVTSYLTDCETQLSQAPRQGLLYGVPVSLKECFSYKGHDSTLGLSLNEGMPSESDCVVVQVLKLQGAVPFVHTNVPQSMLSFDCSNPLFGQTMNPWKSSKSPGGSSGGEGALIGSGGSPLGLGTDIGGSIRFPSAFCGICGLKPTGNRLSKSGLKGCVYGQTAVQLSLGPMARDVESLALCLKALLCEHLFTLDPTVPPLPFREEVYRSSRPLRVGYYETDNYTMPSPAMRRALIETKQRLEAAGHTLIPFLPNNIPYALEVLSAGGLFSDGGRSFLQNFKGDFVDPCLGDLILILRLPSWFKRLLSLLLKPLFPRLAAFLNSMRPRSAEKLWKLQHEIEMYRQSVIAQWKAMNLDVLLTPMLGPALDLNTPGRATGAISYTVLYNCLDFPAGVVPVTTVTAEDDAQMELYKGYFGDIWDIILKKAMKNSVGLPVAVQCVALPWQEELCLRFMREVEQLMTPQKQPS
Procedure, shortened: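 FAAH activity measured as 3H-ethanolamine released from 2 μM [3H]AEA over 10 min by rat brain membrane preparation, after 15 min 37 °C preincubation with test compound at 10 or 0.1 μM. Charcoal-separated supernatant scintillation-counted; values expressed as % of control minus no-protein blank.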

FAAH [2] = target: T2, FAAH (Mus musculus, UniProt O08914); assay: In vivo FAAH inhibition after oral dosing, remaining activity in liver homogenate (LVh, peripheral tissue); set-up: species or system NMRI mice; details: liver homogenate, 3 mg/kg, 8 h after dosing; low value = strong inhibitor
T2 construct: A fragment of liver, left lung lobe and brain without cerebellum were removed; from tissue; host or cells: male NMRI mice; brain (without cerebellum) and liver homogenates
T2 sequence (O08914 1-579): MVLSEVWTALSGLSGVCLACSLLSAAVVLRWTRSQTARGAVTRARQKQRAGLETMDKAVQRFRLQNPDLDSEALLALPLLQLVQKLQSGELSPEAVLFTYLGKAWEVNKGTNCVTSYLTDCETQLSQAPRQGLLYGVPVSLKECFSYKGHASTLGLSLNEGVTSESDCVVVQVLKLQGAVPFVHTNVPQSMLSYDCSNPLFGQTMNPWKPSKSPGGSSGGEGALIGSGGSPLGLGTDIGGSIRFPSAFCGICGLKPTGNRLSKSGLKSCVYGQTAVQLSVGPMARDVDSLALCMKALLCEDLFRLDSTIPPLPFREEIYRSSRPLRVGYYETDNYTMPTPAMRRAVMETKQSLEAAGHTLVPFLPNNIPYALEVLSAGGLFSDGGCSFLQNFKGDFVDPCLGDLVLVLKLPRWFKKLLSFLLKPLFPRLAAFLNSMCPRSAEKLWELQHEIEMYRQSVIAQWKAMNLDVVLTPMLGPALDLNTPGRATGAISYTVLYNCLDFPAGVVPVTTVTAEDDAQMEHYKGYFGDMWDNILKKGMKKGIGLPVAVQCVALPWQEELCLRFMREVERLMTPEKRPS
Experimental: (§1) The in vivo test was performed according to the protocol described below. BRh indicates inhibition in central nervous tissue and LVh indicates inhibition in peripheral tissue, in this case liver.
(§2) The animals used for experiments were male NMRI mice (weighing 27-44 g) obtained from Interfauna Ibérica (Spain). Mice were kept 5 per cage, under controlled environmental conditions (12 hr light/dark cycle and room temperature 22±1° C.). Food and tap water were allowed ad libitum and the experiments were all carried out during daylight hours.
(§3) Animals were administered 30 mg/kg or 3 mg/kg compounds of the invention via oral route (8 ml/kg; compound suspended in 0.5% carboxymethylcellulose (CMC) or solubilized in water) or vehicle (controls) using animal feeding stainless steel curve needles (Perfectum, U.S.A.). Fifteen minutes before sacrifice animal were anesthetized with pentobarbital 60 mg/kg administered intraperitoneally. A fragment of liver, left lung lobe and brain without cerebellum were removed and put in plastic vials containing membrane buffer (3 mM MgCl2, 1 mM EDTA, 50 mM Tris HCl pH 7.4). Tissues were stored at −30° C. until analysis.
(§4) Animals were always fasted overnight before administration of compounds except for time points of >18 h, where food was removed on the morning of day of administration and the compound was administered in the afternoon of the same day. Animals were then given water but nothing else.
(§5) Tissues were thawed on ice and were homogenized in 10 volumes of membrane buffer (3 mM MgCl2, 1 mM EDTA, 50 mM Tris HCl pH 7.4) with either Potter-Elvejhem (brains—8 strokes at 500 rpm) or Heidolph Diax (livers—2 strokes at position 5 for 20 sec with 30 sec pauses).
(§6) Total protein in tissues was determined with the BioRad Protein Assay (BioRad) using a standard curve of BSA (50-250 μg/ml).
(§7) Reaction mix (total volume of 200 μl) contained: […] (2 μM AEA+5 nM ^3H-AEA), 0.1% fatty acid free BSA, 15 μg (brain), 5 μg (liver) or 50 μg (lung) protein, in 1 mM EDTA, 10 mM Tris pH 7.6. After a […] pre-incubation period at 37° C., reaction was started by the addition of the substrate solution (cold AEA+radiolabelled AEA+BSA). Reaction was carried out for 10 min (brain and lung) or […] (liver) before termination by the addition of 400 μl activated charcoal suspension (8 g charcoal in 32 ml 0.5 M HCl in continuous agitation). After a […] incubation period at room temperature with agitation, charcoal was sedimented by centrifugation in microfuge (10 min at 13000 rpm). 200 μl of the supernatant were added to 800 μl Optiphase Supermix scintillation cocktail previously distributed in 24-well plates. Counts per minute (cpm) were determined in a MicrobetaTriLux scintillation counter.
(§8) In each assay blanks (without protein) were prepared.
(§9) The percentage of remaining enzymatic activity was calculated in respect to controls and after blank subtraction.

FAAH [3] = target: T2, FAAH; assay: In vivo FAAH inhibition after oral dosing, remaining activity in brain homogenate (BRh, central nervous tissue); set-up: species or system NMRI mice; details: brain homogenate, 3 mg/kg, 8 h after dosing; low value = strong inhibitor
Experimental: as §1, §2, §3, §4, §5, §6, §7, §8, §9

Row | Compound | In Vitro FAAH activity, 100 nM (FAAH [1]) | In Vitro 100 nM (FAAH activity, % of control) (FAAH [1]) | further results
1 | CN(C(=O)n1cnc(-c2cccc(-c3cc(Cl)ccc3F)c2)c1)C1CCCCC1 [Compound 259, 4-(5′-chloro-2′-fluorobiphenyl-3-yl)-N-cyclohexyl-N-methyl-1H-imidazole-1-carboxamide] | 33.7 % of control | – | –
2 | CN(C(=O)n1cnc(-c2cccc(O)c2)c1)C1CCCC1 [Compound 262, N-cyclopentyl-4-(3-hydroxyphenyl)-N-methyl-1H-imidazole-1-carboxamide] | 7.5 % of control | – | –
3 | CC(C)N(Cc1ccccc1)C(=O)n1cnc(-c2cccc(O)c2)c1 [Compound 265, N-benzyl-4-(3-hydroxyphenyl)-N-isopropyl-1H-imidazole-1-carboxamide] | 99.6 % of control | – | –
4 | CN(C(=O)n1nnc2ccccc21)C1CCCC1 [Compound 266, N-cyclopentyl-N-methyl-1H-benzo[d][1,2,3]triazole-1-carboxamide] | 0.2 % of control | – | –
5 | CC1(C)OCCN1C(=O)n1cnc(-c2ccccc2)c1Cl [Compound 268, (5-chloro-4-phenyl-1H-imidazol-1-yl)(2,2-dimethyloxazolidin-3-yl)methanone] | 104.1 % of control | – | –
6 | CC1(C)COCN1C(=O)n1c(Cl)nc(-c2ccc(Cl)cc2)c1Cl [Compound 269, (2,5-dichloro-4-(4-chlorophenyl)-1H-imidazol-1-yl)(4,4-dimethyloxazolidin-3-yl)methanone] | 106.2 % of control | – | –
7 | CCC1CN(C(=O)n2cnc(-c3ccccc3)c2)C(C)(C)O1 (centres unmarked) [Compound 270, (5-ethyl-2,2-dimethyloxazolidin-3-yl)(4-phenyl-1H-imidazol-1-yl)methanone] | 113.1 % of control | – | –
8 | COc1ccccc1-c1cn(C(=O)N(C)C2CCCCC2)cn1 [Compound 271, N-cyclohexyl-4-(2-methoxyphenyl)-N-methyl-1H-imidazole-1-carboxamide] | 55.8 % of control | – | –
9 | CN(C(=O)n1cnc(-c2ccc(Cl)c(Cl)c2)c1)C1CCCCC1 [Compound 274, N-cyclohexyl-4-(3,4-dichlorophenyl)-N-methyl-1H-imidazole-1-carboxamide] | – | 85 % of control | –
10 | CN(C(=O)n1cnc(-c2ccc(Cl)cc2)c1)C1CCCCC1 [Compound 277, 4-(4-chlorophenyl)-N-cyclohexyl-N-methyl-1H-imidazole-1-carboxamide] | – | 72.1 % of control | –
11 | CC1(C)COCN1C(=O)n1cnc(-c2ccc(Cl)cc2)c1Cl [Compound 280, (5-chloro-4-(4-chlorophenyl)-1H-imidazol-1-yl)(4,4-dimethyloxazolidin-3-yl)methanone] | – | 111.8 % of control | –
12 | COc1ccc(-c2cn(C(=O)N(C)C3CCCC3)cn2)cc1OC [Compound 281, N-cyclopentyl-4-(3,4-dimethoxyphenyl)-N-methyl-1H-imidazole-1-carboxamide] | – | 25.5 % of control | –
13 | CN(C(=O)n1cnc(-c2ccccc2)n1)C1CCCCC1 [Compound 283, N-cyclohexyl-N-methyl-3-phenyl-1H-1,2,4-triazole-1-carboxamide] | – | 75.1 % of control | –
14 | CC1(C)COCN1C(=O)n1cnc(-c2ccccc2)n1 [Compound 285, (4,4-dimethyloxazolidin-3-yl)(3-phenyl-1H-1,2,4-triazol-1-yl)methanone] | – | 85.4 % of control | –
15 | CN(C(=O)n1cnc(-c2cccc(OCc3ccccc3)c2)c1)C12CC3CC(CC(C3)C1)C2 [Compound 288, 4-[3-(benzyloxy)phenyl]-N-methyl-N-tricyclo[3.3.1.13,7]dec-1-yl-1H-imidazole-1-carboxamide] | – | 114.8 % of control | –
16 | CN(C(=O)n1cnc(-c2cccc(-c3ccccc3)c2)c1)C12CC3CC(CC(C3)C1)C2 [Compound 290, 4-biphenyl-3-yl-N-methyl-N-tricyclo[3.3.1.13,7]dec-1-yl-1H-imidazole-1-carboxamide] | – | – | In Vivo LVh 3 mg·kg 8 h (remaining FAAH activity, % of control) (FAAH [2]): 112.4 % of control; In Vivo BRh 3 mg·kg 8 h (remaining FAAH activity, % of control) (FAAH [3]): 115 % of control
17 | COc1ccc2nnn(C(=O)N3COCC3(C)C)c2c1 [Compound 293, (4,4-dimethyloxazolidin-3-yl)(6-methoxy-1H-benzo[d][1,2,3]triazol-1-yl)methanone] | – | – | In Vivo LVh 3 mg·kg 8 h (remaining FAAH activity, % of control) (FAAH [2]): 1.7 % of control; In Vivo BRh 3 mg·kg 8 h (remaining FAAH activity, % of control) (FAAH [3]): 3.5 % of control
18 | CN(C(=O)n1cnc(-c2ccc(O)cc2)c1)C1CCCC1 [Compound 294, N-cyclopentyl-4-(4-hydroxyphenyl)-N-methyl-1H-imidazole-1-carboxamide] | – | – | In Vivo LVh 3 mg·kg 8 h (remaining FAAH activity, % of control) (FAAH [2]): 1.4 % of control; In Vivo BRh 3 mg·kg 8 h (remaining FAAH activity, % of control) (FAAH [3]): 1.4 % of control
19 | CC1(C)OC(c2ccccc2)CN1C(=O)n1cnc(-c2ccccc2)c1 (centres unmarked) [Compound 298, (2,2-dimethyl-5-phenyloxazolidin-3-yl)(4-phenyl-1H-imidazol-1-yl)methanone] | – | – | In Vivo LVh 3 mg·kg 8 h (remaining FAAH activity, % of control) (FAAH [2]): 59.2 % of control; In Vivo BRh 3 mg·kg 8 h (remaining FAAH activity, % of control) (FAAH [3]): 74.4 % of control
20 | O=C(N1COC(c2ccccc2)C1)n1cnc(-c2ccc(F)c(F)c2)c1 (centres unmarked) [Compound 308, (4-(3,4-difluorophenyl)-1H-imidazol-1-yl)(5-phenyloxazolidin-3-yl)methanone] | – | 2.5 % of control | –
21 | COc1cc(-c2cn(C(=O)N(C)C3CCCC3)cn2)ccc1F [Compound 321, N-cyclopentyl-4-(4-fluoro-3-methoxyphenyl)-N-methyl-1H-imidazole-1-carboxamide] | – | – | In Vivo LVh 3 mg·kg 8 h (remaining FAAH activity, % of control) (FAAH [2]): 1.2 % of control; In Vivo BRh 3 mg·kg 8 h (remaining FAAH activity, % of control) (FAAH [3]): 1.4 % of control
